According to patent US10577317B2, “Crystal forms and production methods thereof” (Sunovion Pharmaceuticals Inc., priority 2017, dated 2020):
Converted amounts (≈) assume the structure as drawn. “Also recorded” adds a separate entry of the source. Like-named read-outs stand apart in the source and are kept apart here.

Legend:
Format in all cases: physicochemical
[1] = Solubility (mg/mL) in water, buffers, simulated fluids and organic solvents (Table 1)
[2] = DVS water sorption isotherm, 25° C. scanned over 0 to 95% relative humidity (hygroscopicity); conditions: DVS, 25° C., 0 to 95% relative humidity
Excerpt: In various embodiments, the hygroscopicity of crystal forms of racemic amisulpride, enantiomeric amisulpride, and enantiomeric amisulpride solvates are characterized by dynamic vapor sorption (DVS). DVS is a gravimetric technique that measures how much of a solvent is absorbed by a sample by varying the vapor concentration surrounding the sample (e.g., relative humidity) and measuring the change in mass. In the present application, DVS is used to generate water sorption isotherms, which represent the equilibrium amount of vapor sorbed as a function of steady state relative vapor pressure at a constant temperature.

[3] = Desolvation of ethyl acetate solvate crystal forms upon drying and heating; conditions: drying and heating above about 30° C.
Description: For example, Examples 4A and 4B teach methods of producing crystalline (R)-amisulpride ethyl acetate solvate of Form B. The product of these examples upon drying above about 30° C., desolvates and converts to crystals of crystalline (R)-amisulpride free base of Form A and amorphous. Similarly, for example, Example 7 teaches a method producing crystalline (S)-amisulpride ethyl acetate solvate of Form B′. The product of these examples upon drying above about 30° C., desolvates and converts to crystals of crystalline (S)-amisulpride free base of Form A′ and amorphous. Although the fraction of the solvate that converts to Form A or Form A′ in the above examples is low, it is sufficient for obtaining seed crystals.
In various preferred embodiments, crystals of enantiomeric amisulpride ethyl acetate solvate are isolated by cooling the reaction mixture to below about 10° C., and preferably to about −10° C., until a slurry is formed. The slurry is slowly warmed and agitated for at least 1 hour at a temperature less than about 10° C., then filtered and washed with ethyl acetate at room temperature, and the resultant residue allowed to dry to isolate the desired crystalline enantiomeric amisulpride ethyl acetate solvate having a powder x-ray crystal pattern comprising peaks, in terms of 2-theta, at least at 6.4±0.2°, 8.3±0.2°, and 20.8±0.2°.

CCN1CCCC1CNC(=O)c1cc(S(=O)(=O)CC)c(N)cc1OC (racemic) [crystalline racemic amisulpride, 4-amino-N-[(1-ethylpyrrolidin-2-yl)methyl]-5-ethylsulfonyl-2-methoxy-benzamide, reference compound]
solubility ([1]; acetone/MtBE 1:4, organic solvent or mixture, read-out: Solubility (mg/mL): Acetone/MtBE 1:4): 0.4 mg/mL (≈ 1080 µM)
solubility ([1]; acetone/MtBE 1:9, organic solvent or mixture, read-out: Solubility (mg/mL): Acetone/MtBE 1:9): 0.2 mg/mL (≈ 541 µM)
solubility ([1]; ethyl acetate, organic solvent or mixture, read-out: Solubility (mg/mL): Ethyl Acetate): 0.5 mg/mL (≈ 1350 µM)
solubility ([1]; water, solution pH 10.2 (Form A), 10.3 (Form A′), read-out: Solubility (mg/mL): Water): < 1 mg/mL

CCN1CCC[C@H]1CNC(=O)c1cc(S(=O)(=O)CC)c(N)cc1OC.O=C(O)C(O)C(O)C(=O)O [(S)-amisulpride D-tartrate, S-(−)-4-Amino-N-[(1-ethyl-2-pyrrolidinyl)methyl]-5-(ethylsulfonyl)-2-methoxybenzamide D-tartrate, reference compound]
hygroscopicity [2]: highly hygroscopic
maximum mass change in water sorption isotherms (n=4, σ=18.25) ([2]; n=4): 52±9%

CCN1CCC[C@@H]1CNC(=O)c1cc(S(=O)(=O)CC)c(N)cc1OC.CCOC(C)=O [Form B, (R)-4-Amino-N-[(1-ethyl-2-pyrrolidinyl)methyl]-5-(ethylsulfonyl)-2-methoxybenzamide ethyl acetate solvate]
desolvation of ethyl acetate solvate form [3]: desolvate upon drying and heating about 30 °C to convert to Form A; also recorded: desolvate to Form A and amorphous

CCN1CCC[C@H]1CNC(=O)c1cc(S(=O)(=O)CC)c(N)cc1OC.CCOC(C)=O [Form B′, S-4-Amino-N-[(1-ethyl-2-pyrrolidinyl)methyl]-5-(ethylsulfonyl)-2-methoxybenzamide ethyl acetate solvate]
desolvation of ethyl acetate solvate form [3]: desolvate upon drying and heating about 30 °C; also recorded: desolvate to Form A′ and amorphous
